Laboratory results: the supplement of paper PMC10307832

Tests used:
Test in all cases: relative viability (nuclei count vs DMSO), 5 days (fraction); higher = more cells survive
JZL-184 + Pemetrexed = compound: C1CN(CCC1C(C2=CC3=C(C=C2)OCO3)(C4=CC5=C(C=C4)OCO5)O)C(=O)OC6=CC=C(C=C6)[N+](=O)[O-] [JZL-184] + Nc1nc2[nH]cc(CCc3ccc(C(=O)N[C@@H](CCC(=O)O)C(=O)O)cc3)c2c(=O)[nH]1 [Pemetrexed] (partner 0.2 µM)
Outline: (§1)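 The day after seeding in 1536-well plates, lung cancer cell lines were treated by pin tool with a single drug, or with a fixed anchor-drug dose together with five library-drug doses (not always all listed) in √10 steps. After 5 days, a combined fix-and-stain solution (final 0.05% Triton X-100, 1% formaldehyde, 1 ug/ml Hoechst) was added. Nuclei counted on 4× images gave relative viability as treated counts over vehicle counts, reported as the median of duplicate plates.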

JZL-184 + Lapatinib = compound: C1CN(CCC1C(C2=CC3=C(C=C2)OCO3)(C4=CC5=C(C=C4)OCO5)O)C(=O)OC6=CC=C(C=C6)[N+](=O)[O-] [JZL-184] + CS(=O)(=O)CCNCc1ccc(-c2ccc3ncnc(Nc4ccc(OCc5cccc(F)c5)c(Cl)c4)c3c2)o1 [Lapatinib] (partner 2 µM)
Outline: as §1

JZL-184 + Phenformin = compound: C1CN(CCC1C(C2=CC3=C(C=C2)OCO3)(C4=CC5=C(C=C4)OCO5)O)C(=O)OC6=CC=C(C=C6)[N+](=O)[O-] [JZL-184] + N=C(N)NC(=N)NCCc1ccccc1 [Phenformin] (partner 250 µM)
Outline: as §1

JZL-184 + Olaparib = compound: C1CN(CCC1C(C2=CC3=C(C=C2)OCO3)(C4=CC5=C(C=C4)OCO5)O)C(=O)OC6=CC=C(C=C6)[N+](=O)[O-] [JZL-184] + O=C(c1cc(Cc2n[nH]c(=O)c3ccccc23)ccc1F)N1CCN(C(=O)C2CC2)CC1 [Olaparib] (partner 8 µM)
Outline: as §1

JZL-184 + Palbociclib = compound: C1CN(CCC1C(C2=CC3=C(C=C2)OCO3)(C4=CC5=C(C=C4)OCO5)O)C(=O)OC6=CC=C(C=C6)[N+](=O)[O-] [JZL-184] + CC(=O)c1c(C)c2cnc(Nc3ccc(N4CCNCC4)cn3)nc2n(C2CCCC2)c1=O [Palbociclib] (partner 0.5 µM)
Outline: as §1

Cell Line	relative viability (JZL-184 + Pemetrexed; first compound 0.04 µM)	relative viability (JZL-184 + Pemetrexed; first compound 1.265 µM)	relative viability (JZL-184 + Pemetrexed; first compound 4 µM)	relative viability (JZL-184 + Lapatinib; first compound 0.04 µM)	relative viability (JZL-184 + Lapatinib; first compound 0.4 µM)	relative viability (JZL-184 + Lapatinib; first compound 1.265 µM)	relative viability (JZL-184 + Lapatinib; first compound 4 µM)	relative viability (JZL-184 + Phenformin; first compound 0.04 µM)	relative viability (JZL-184 + Phenformin; first compound 0.4 µM)	relative viability (JZL-184 + Phenformin; first compound 1.265 µM)	relative viability (JZL-184 + Phenformin; first compound 4 µM)	relative viability (JZL-184 + Olaparib; first compound 0.04 µM)	relative viability (JZL-184 + Olaparib; first compound 1.265 µM)	relative viability (JZL-184 + Olaparib; first compound 4 µM)	relative viability (JZL-184 + Palbociclib; first compound 0.04 µM)	relative viability (JZL-184 + Palbociclib; first compound 0.4 µM)	relative viability (JZL-184 + Palbociclib; first compound 1.265 µM)	relative viability (JZL-184 + Palbociclib; first compound 4 µM)	relative viability (JZL-184 + Pemetrexed; first compound 0.4 µM)	relative viability (JZL-184 + Olaparib; first compound 0.4 µM)
HCC-78	0.895	0.875	0.919	0.634	0.787	0.755	0.302	0.63	0.611	0.754	0.752	0.823	0.831	0.768	0.425	0.425	0.452	0.471		
HCC-366	0.175	0.137	0.161	1.19	0.959	1.13	1.05	0.664	0.553	0.653	0.624	0.361	0.302	0.36	0.426	0.374	0.394	0.322	0.146	0.353
HCC-827	0.222	0.178	0.261	0.228	0.196	0.234	0.221	0.424	0.376	0.424	0.379	0.556	0.718	0.627	0.52	0.441	0.555	0.48	0.199	0.607
HOP-62	0.331	0.306	0.309	1.19	1	0.665	0.986	0.787	0.639	0.705	0.683	0.49	0.529	0.507	0.481	0.374	0.453	0.455	0.312	0.328
IA-LM				1.09	0.555	0.759	0.629					0.987	0.827	0.82						0.737
LC-2-ad	0.293	0.279	0.265	1.19	0.889	1.05	0.952	0.639	0.549	0.67	0.538	0.79	0.696	0.686	0.579	0.504	0.488	0.484	0.278	0.682
LCLC-97TM1	0.166	0.13	0.201	1.08		1.01	0.858	0.396	0.431	0.449	0.435	0.437	0.371	0.385	0.283	0.195	0.255	0.274	0.17	0.374
LCLC-103H	0.495	0.453	0.477					0.338	0.296	0.345	0.323	0.829	0.765	0.763	0.438	0.213	0.502	0.511	0.481	0.767
